Peptide text beside a SMILES is read from it.
Experiments:
Format in all cases: biochemical
HDAC6 = target: T1, HDAC6 (Homo sapiens, UniProt Q9UBN7); experiment: HDAC6 inhibition, full IC50 measurement (Reaction Biology; fluorogenic p53 peptide RHKK(Ac)AMC)
T1 construct: purchased Reaction Biology Corporation (assay run by the CRO)
T1 sequence (Q9UBN7 1-1215): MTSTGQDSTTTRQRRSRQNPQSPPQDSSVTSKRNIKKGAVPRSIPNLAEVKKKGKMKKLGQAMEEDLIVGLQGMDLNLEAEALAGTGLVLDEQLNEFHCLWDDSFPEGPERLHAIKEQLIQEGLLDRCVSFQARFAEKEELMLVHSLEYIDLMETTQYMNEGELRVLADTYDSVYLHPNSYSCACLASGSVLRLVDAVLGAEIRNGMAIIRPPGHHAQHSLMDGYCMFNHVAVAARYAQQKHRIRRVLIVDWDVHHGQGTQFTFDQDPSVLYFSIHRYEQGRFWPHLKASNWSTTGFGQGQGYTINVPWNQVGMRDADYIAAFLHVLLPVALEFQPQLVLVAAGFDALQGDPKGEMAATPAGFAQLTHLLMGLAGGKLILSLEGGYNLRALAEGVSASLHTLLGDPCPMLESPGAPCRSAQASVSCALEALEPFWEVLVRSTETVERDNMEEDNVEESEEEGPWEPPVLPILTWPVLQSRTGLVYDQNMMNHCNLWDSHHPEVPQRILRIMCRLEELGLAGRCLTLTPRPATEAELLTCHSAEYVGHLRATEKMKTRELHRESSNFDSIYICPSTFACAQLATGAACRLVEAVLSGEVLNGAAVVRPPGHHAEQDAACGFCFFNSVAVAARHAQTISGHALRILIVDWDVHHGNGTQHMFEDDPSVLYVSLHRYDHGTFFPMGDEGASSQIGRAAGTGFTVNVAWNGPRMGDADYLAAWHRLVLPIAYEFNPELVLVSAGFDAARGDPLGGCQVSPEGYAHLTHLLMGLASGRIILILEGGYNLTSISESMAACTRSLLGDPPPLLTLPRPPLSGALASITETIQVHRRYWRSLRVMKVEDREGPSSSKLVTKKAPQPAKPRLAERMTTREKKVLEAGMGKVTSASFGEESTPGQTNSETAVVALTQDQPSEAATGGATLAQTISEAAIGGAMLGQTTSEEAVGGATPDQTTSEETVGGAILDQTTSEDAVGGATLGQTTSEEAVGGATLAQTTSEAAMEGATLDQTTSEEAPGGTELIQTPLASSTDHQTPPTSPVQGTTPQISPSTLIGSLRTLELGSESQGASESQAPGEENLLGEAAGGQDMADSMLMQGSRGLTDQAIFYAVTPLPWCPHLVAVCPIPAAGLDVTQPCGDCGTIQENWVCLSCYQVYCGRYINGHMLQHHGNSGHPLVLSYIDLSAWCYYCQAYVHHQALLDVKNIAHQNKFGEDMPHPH
Summary of the method: (§1)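 Deacetylation of 50 μM RHKK(Ac)AMC is measured after 1 h at 30 °C in pH 8.0 Tris buffer (1% DMSO, 1 mg/ml BSA). Developer ends the reaction; the post-plateau 360/460 nm signal is fitted to IC50, averaging replicate measurements.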

HDAC1 = target: T2, HDAC1 (Homo sapiens, UniProt Q13547); experiment: HDAC1 inhibition, full IC50 measurement (Reaction Biology; fluorogenic p53 peptide RHKK(Ac)AMC); conditions: t1/t2 replicates
T2 construct: purchased Reaction Biology Corporation (assay run by the CRO)
T2 sequence (Q13547 whole entry): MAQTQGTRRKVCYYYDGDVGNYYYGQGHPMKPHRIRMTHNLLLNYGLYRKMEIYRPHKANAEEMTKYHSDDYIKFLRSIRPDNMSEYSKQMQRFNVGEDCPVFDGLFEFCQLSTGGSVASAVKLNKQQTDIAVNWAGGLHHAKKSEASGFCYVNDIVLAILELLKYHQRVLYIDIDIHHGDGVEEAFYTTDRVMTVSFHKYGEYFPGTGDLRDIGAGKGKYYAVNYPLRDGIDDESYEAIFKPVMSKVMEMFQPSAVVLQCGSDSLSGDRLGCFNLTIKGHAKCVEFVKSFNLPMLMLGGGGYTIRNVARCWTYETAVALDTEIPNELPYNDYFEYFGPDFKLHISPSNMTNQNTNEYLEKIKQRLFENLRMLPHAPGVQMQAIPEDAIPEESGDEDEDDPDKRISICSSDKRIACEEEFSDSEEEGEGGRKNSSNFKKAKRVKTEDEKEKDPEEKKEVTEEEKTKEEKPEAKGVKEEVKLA
Summary of the method: as §1

HDAC3 = target: T3, HDAC3 (Homo sapiens, UniProt O15379); experiment: HDAC3 inhibition, full IC50 measurement (Reaction Biology; fluorogenic p53 peptide RHKK(Ac)AMC)
T3 construct: purchased Reaction Biology Corporation (assay run by the CRO)
T3 sequence (O15379 whole entry): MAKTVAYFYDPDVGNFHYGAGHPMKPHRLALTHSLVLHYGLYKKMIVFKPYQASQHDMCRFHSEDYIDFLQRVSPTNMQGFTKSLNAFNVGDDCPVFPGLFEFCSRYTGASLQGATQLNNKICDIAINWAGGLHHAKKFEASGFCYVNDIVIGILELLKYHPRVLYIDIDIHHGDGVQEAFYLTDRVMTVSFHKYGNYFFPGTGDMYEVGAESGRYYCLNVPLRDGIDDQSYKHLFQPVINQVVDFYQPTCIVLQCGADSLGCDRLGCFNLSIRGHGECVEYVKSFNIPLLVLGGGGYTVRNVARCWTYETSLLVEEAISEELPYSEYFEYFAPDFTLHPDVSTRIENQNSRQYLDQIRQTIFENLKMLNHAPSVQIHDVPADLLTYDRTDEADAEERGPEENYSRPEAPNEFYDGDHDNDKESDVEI
T3 sequence (Q9Y618 395-489 partner limits assumed): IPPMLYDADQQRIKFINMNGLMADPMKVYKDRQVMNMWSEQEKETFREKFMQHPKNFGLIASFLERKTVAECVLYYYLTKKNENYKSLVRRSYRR
Summary of the method: as §1

CSCC[C@H]1NC(=O)[C@@H](CO)NC(=O)[C@H](CC(N)=O)NC(=O)[C@H](CC(=O)O)NC(=O)[C@@H]([C@H](C)O)NC(=O)[C@H](Cc2c[nH]c3ccccc23)NC(=O)[C@H](CCCCCS)NC(=O)[C@H](CCCCN)NC(=O)[C@@H](CC(=O)O)NC1=O [des2.1.1, SHA-Trp-dThr-Asp-Asn-dSer-dMet-dAsp-Lys] (HELM PEPTIDE1{D.N.[dS].[dM].[dD].K.[O=C([C@H](CCCCCS)N[*:1])[*:2]].W.[dT]}$PEPTIDE1,PEPTIDE1,1:R1-9:R2$$$V2.0)
HDAC6 activity raw data (signal) (HDAC6; Conc. 1.00E-05 M, t1): -77 | HDAC6 activity raw data (signal) (HDAC6; Conc. 1.00E-05 M, t2): -1621 | HDAC6 activity raw data (signal) (HDAC6; Conc. 1.11E-06 M, t1): 12750 | HDAC6 activity raw data (signal) (HDAC6; Conc. 1.11E-06 M, t2): 10889 | HDAC6 activity raw data (signal) (HDAC6; Conc. 1.23E-07 M, t1): 59972 | HDAC6 activity raw data (signal) (HDAC6; Conc. 1.23E-07 M, t2): 56137 | HDAC6 activity raw data (signal) (HDAC6; Conc. 1.37E-08 M, t1): 194975 | HDAC6 activity raw data (signal) (HDAC6; Conc. 1.37E-08 M, t2): 185826 | HDAC6 activity raw data (signal) (HDAC6; Conc. 1.52E-09 M, t1): 455139 | HDAC6 activity raw data (signal) (HDAC6; Conc. 1.52E-09 M, t2): 435218 | HDAC6 activity raw data (signal) (HDAC6; Conc. 3.33E-06 M, t1): 6654 | HDAC6 activity raw data (signal) (HDAC6; Conc. 3.33E-06 M, t2): 2213 | HDAC6 activity raw data (signal) (HDAC6; Conc. 3.70E-07 M, t1): 27729 | HDAC6 activity raw data (signal) (HDAC6; Conc. 3.70E-07 M, t2): 16335 | HDAC6 activity raw data (signal) (HDAC6; Conc. 4.12E-08 M, t1): 104749 | HDAC6 activity raw data (signal) (HDAC6; Conc. 4.12E-08 M, t2): 101798 | HDAC6 activity raw data (signal) (HDAC6; Conc. 4.57E-09 M, t1): 322592 | HDAC6 activity raw data (signal) (HDAC6; Conc. 4.57E-09 M, t2): 306483 | HDAC6 activity raw data (signal) (HDAC6; Conc. 5.08E-10 M, t1): 505663 | HDAC6 activity raw data (signal) (HDAC6; Conc. 5.08E-10 M, t2): 482059 | HDAC1 activity raw data (signal) (HDAC1; peptide conc. 1.00E-05 M, listed as des2.1.1_t1): -3296 | HDAC1 activity raw data (signal) (HDAC1; peptide conc. 1.00E-05 M, listed as des2.1.1_t2): -5 | HDAC1 activity raw data (signal) (HDAC1; peptide conc. 1.11E-06 M, listed as des2.1.1_t1): 15027 | HDAC1 activity raw data (signal) (HDAC1; peptide conc. 1.11E-06 M, listed as des2.1.1_t2): 19517 | HDAC1 activity raw data (signal) (HDAC1; peptide conc. 1.23E-07 M, listed as des2.1.1_t1): 121250 | HDAC1 activity raw data (signal) (HDAC1; peptide conc. 1.23E-07 M, listed as des2.1.1_t2): 94143 | HDAC1 activity raw data (signal) (HDAC1; peptide conc. 1.37E-08 M, listed as des2.1.1_t1): 426941 | HDAC1 activity raw data (signal) (HDAC1; peptide conc. 1.37E-08 M, listed as des2.1.1_t2): 417070 | HDAC1 activity raw data (signal) (HDAC1; peptide conc. 1.52E-09 M, listed as des2.1.1_t1): 888087 | HDAC1 activity raw data (signal) (HDAC1; peptide conc. 1.52E-09 M, listed as des2.1.1_t2): 854689 | HDAC1 activity raw data (signal) (HDAC1; peptide conc. 3.33E-06 M, listed as des2.1.1_t1): 5417 | HDAC1 activity raw data (signal) (HDAC1; peptide conc. 3.33E-06 M, listed as des2.1.1_t2): 8523 | HDAC1 activity raw data (signal) (HDAC1; peptide conc. 3.70E-07 M, listed as des2.1.1_t1): 47109 | HDAC1 activity raw data (signal) (HDAC1; peptide conc. 3.70E-07 M, listed as des2.1.1_t2): 41206 | HDAC1 activity raw data (signal) (HDAC1; peptide conc. 4.12E-08 M, listed as des2.1.1_t1): 257706 | HDAC1 activity raw data (signal) (HDAC1; peptide conc. 4.12E-08 M, listed as des2.1.1_t2): 221039 | HDAC1 activity raw data (signal) (HDAC1; peptide conc. 4.57E-09 M, listed as des2.1.1_t1): 716596 | HDAC1 activity raw data (signal) (HDAC1; peptide conc. 4.57E-09 M, listed as des2.1.1_t2): 664253 | HDAC1 activity raw data (signal) (HDAC1; peptide conc. 5.08E-10 M, listed as des2.1.1_t1): 1042274 | HDAC1 activity raw data (signal) (HDAC1; peptide conc. 5.08E-10 M, listed as des2.1.1_t2): 995234 | HDAC3 activity raw data (signal) (HDAC3; Conc. 1.00E-05 M, t1): 7144 | HDAC3 activity raw data (signal) (HDAC3; Conc. 1.00E-05 M, t2): 5841 | HDAC3 activity raw data (signal) (HDAC3; Conc. 1.11E-06 M, t1): 51390 | HDAC3 activity raw data (signal) (HDAC3; Conc. 1.11E-06 M, t2): 54678 | HDAC3 activity raw data (signal) (HDAC3; Conc. 1.23E-07 M, t1): 246556 | HDAC3 activity raw data (signal) (HDAC3; Conc. 1.23E-07 M, t2): 273031 | HDAC3 activity raw data (signal) (HDAC3; Conc. 1.37E-08 M, t1): 687389 | HDAC3 activity raw data (signal) (HDAC3; Conc. 1.37E-08 M, t2): 738917 | HDAC3 activity raw data (signal) (HDAC3; Conc. 1.52E-09 M, t1): 1292643 | HDAC3 activity raw data (signal) (HDAC3; Conc. 1.52E-09 M, t2): 1253696 | HDAC3 activity raw data (signal) (HDAC3; Conc. 3.33E-06 M, t1): 22832 | HDAC3 activity raw data (signal) (HDAC3; Conc. 3.33E-06 M, t2): 23560 | HDAC3 activity raw data (signal) (HDAC3; Conc. 3.70E-07 M, t1): 127387 | HDAC3 activity raw data (signal) (HDAC3; Conc. 3.70E-07 M, t2): 114572 | HDAC3 activity raw data (signal) (HDAC3; Conc. 4.12E-08 M, t1): 487885 | HDAC3 activity raw data (signal) (HDAC3; Conc. 4.12E-08 M, t2): 457810 | HDAC3 activity raw data (signal) (HDAC3; Conc. 4.57E-09 M, t1): 1034207 | HDAC3 activity raw data (signal) (HDAC3; Conc. 4.57E-09 M, t2): 1052923 | HDAC3 activity raw data (signal) (HDAC3; Conc. 5.08E-10 M, t1): 1393662 | HDAC3 activity raw data (signal) (HDAC3; Conc. 5.08E-10 M, t2): 1455609

From publication PMC8185074, “Anchor extension: a structure-guided approach to design cyclic peptides targeting enzyme active sites” (Nature Communications, 2021)
